The supplement of paper PMC10307832

How the values were obtained:
Test in all cases: relative viability (nuclei count vs DMSO), 5 days (fraction); higher = more cells survive
[1] = system: NCI-H1993
In short: (§1)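 Lung cancer cell lines in 1536-well plates got either a single drug or a fixed anchor-drug dose together with five library-drug doses (not always all listed) in √10 steps, by pin tool, on the day after seeding. Nuclei were counted after 5 days, and relative viability is the treated-to-vehicle ratio of nuclei counts. Values are medians of duplicate plates.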

[2] = system: NCI-H2009
In short: as §1

[3] = system: NCI-H2087
In short: as §1

[4] = system: NCI-H2170
In short: as §1

[5] = system: NCI-H2342
In short: as §1

[6] = system: NCI-H2405
In short: as §1

[7] = system: NCI-H522
In short: as §1

[8] = system: NCI-H647
In short: as §1

[9] = system: NCI-H661
In short: as §1

[10] = system: SK-LU-1
In short: as §1

[11] = system: SK-MES-1
In short: as §1

Nc1ccn([C@@H]2O[C@H](CO)[C@@H](O)[C@@H]2O)c(=O)n1 [Cytarabine] + CC(=O)Nc1cccc(-n2c(=O)n(C3CC3)c(=O)c3c(Nc4ccc(I)cc4F)n(C)c(=O)c(C)c32)c1 [Trametinib] (partner 0.02 µM)
relative viability ([1]; first compound 0.01581 µM): 0.518
relative viability ([1]; first compound 0.05 µM): 0.498
relative viability ([1]; first compound 0.1581 µM): 0.437
relative viability ([1]; first compound 0.5 µM): 0.432
relative viability ([2]; first compound 0.005 µM): 0.271
relative viability ([2]; first compound 0.01581 µM): 0.25
relative viability ([2]; first compound 0.05 µM): 0.249
relative viability ([2]; first compound 0.1581 µM): 0.238
relative viability ([2]; first compound 0.5 µM): 0.137
relative viability ([3]; first compound 0.005 µM): 0.187
relative viability ([3]; first compound 0.01581 µM): 0.221
relative viability ([3]; first compound 0.05 µM): 0.187
relative viability ([3]; first compound 0.1581 µM): 0.139
relative viability ([3]; first compound 0.5 µM): 0.126
relative viability ([4]; first compound 0.005 µM): 0.741
relative viability ([4]; first compound 0.01581 µM): 0.665
relative viability ([4]; first compound 0.05 µM): 0.581
relative viability ([4]; first compound 0.1581 µM): 0.374
relative viability ([4]; first compound 0.5 µM): 0.299
relative viability ([5]; first compound 0.005 µM): 0.779
relative viability ([5]; first compound 0.01581 µM): 0.825
relative viability ([5]; first compound 0.05 µM): 0.803
relative viability ([5]; first compound 0.1581 µM): 0.579
relative viability ([5]; first compound 0.5 µM): 0.646
relative viability ([6]; first compound 0.005 µM): 0.648
relative viability ([6]; first compound 0.01581 µM): 0.53
relative viability ([6]; first compound 0.05 µM): 0.464
relative viability ([6]; first compound 0.1581 µM): 0.401
relative viability ([6]; first compound 0.5 µM): 0.317
relative viability ([7]; first compound 0.005 µM): 0.823
relative viability ([7]; first compound 0.01581 µM): 0.75
relative viability ([7]; first compound 0.05 µM): 0.65
relative viability ([7]; first compound 0.1581 µM): 0.589
relative viability ([7]; first compound 0.5 µM): 0.515
relative viability ([8]; first compound 0.005 µM): 0.449
relative viability ([8]; first compound 0.01581 µM): 0.317
relative viability ([8]; first compound 0.05 µM): 0.22
relative viability ([8]; first compound 0.1581 µM): 0.0976
relative viability ([8]; first compound 0.5 µM): 0.0793
relative viability ([9]; first compound 0.005 µM): 0.574
relative viability ([9]; first compound 0.01581 µM): 0.571
relative viability ([9]; first compound 0.05 µM): 0.582
relative viability ([9]; first compound 0.1581 µM): 0.435
relative viability ([9]; first compound 0.5 µM): 0.385
relative viability ([10]; first compound 0.005 µM): 0.416
relative viability ([10]; first compound 0.01581 µM): 0.454
relative viability ([10]; first compound 0.05 µM): 0.423
relative viability ([10]; first compound 0.1581 µM): 0.356
relative viability ([10]; first compound 0.5 µM): 0.303
relative viability ([11]; first compound 0.005 µM): 0.545
relative viability ([11]; first compound 0.01581 µM): 0.603
relative viability ([11]; first compound 0.05 µM): 0.315
relative viability ([11]; first compound 0.1581 µM): 0.215
relative viability ([11]; first compound 0.5 µM): 0.227
